# According to US10285994B2, “Method of preventing or treating osteoporosis by neddylation inhibitor” (Chang Gung University, priority 2017, dated 2019):
# Tests used:
# [1] = test system: RAW264.7 cells; type: cell-based, mouse
# Experimental: (§1) FIGS. 2A-2D are data collected from RAW264.7 cells respectively incubated in the medium containing sRANKL (50 ng/ml) and specified concentrations of MLN4924 for 7 days according to example 1.2 of the present disclosure. FIG. 2A: the photographs of TRAP staining depicting the differentiation of osteoclasts from RAW264.7 cells. FIG. 2B: after the differentiation of osteoclasts in Corning Osteo Surface, the cells were removed, and the resorbed areas for confirming osteoclast activity were analyzed by 1% toluidine blue staining. FIG. 2C: the culture medium is subject to Biovision Cathepsin K Activity Fluorometric Assay Kit for the analysis of cathepsin K activity. FIG. 2D: the effect of effective doses of MLN4924 on the viability of RAW264.7 cells is evaluated by MTT assay. Scale bar represents 100 μm. Data are expressed as mean±SD where *p<0.05.
# In addition to BMMs, the effect of MLN4924 on macrophage cell line RAW264.7 cells was also investigated. The RAW264.7 cells were cultured in the medium containing sRANKL and MLN4924 for 7 days, then subjected to osteoclast formation evaluation by TRAP staining.
# [2] = test system: primary mouse bone marrow-derived macrophages (BMMs); experiment: Osteoclast formation from BMMs, TRAP staining; type: cell-based; settings: sRANKL 50 ng/ml, M-CSF 40 ng/ml, 7 days, FIG. 1A
# Experimental: (§2) FIGS. 1A-1D are data collected from primary mouse bone marrow-derived macrophages (BMMs) respectively incubated in the medium containing the soluble recombinant RANKL (sRANKL, 50 ng/ml), macrophage colony-stimulating factor (M-CSF, 40 ng/ml) and specified concentrations of MLN4924 for 7 days according to example 1.1 of the present disclosure. FIG. 1A: the photographs of TRAP staining depicting the differentiation of osteoclasts from BMMs. FIG. 1B: after the differentiation of osteoclasts in Corning Osteo Surface (a synthetic 3-dimensional structure that mimics in vivo bone for in vitro bone cell assays), the cells were removed, and the resorbed areas for confirming osteoclast activity were analyzed by 1% toluidine blue staining. FIG. 1C: the culture medium is subject to Biovision Cathepsin K Activity Fluorometric Assay Kit for the analysis of cathepsin K activity. FIG. 1D: the effect of effective doses of MLN4924 on the viability of BMMs is evaluated by MTT assay. Scale bar represents 100 μm. Data are expressed as mean±SD where *p<0.05; **p<0.01.
# The pre-osteoclast cells were prepared by mouse bone marrow-derived macrophage (BMM). In brief, the femurs and tibias were obtained from 6-12 week old C57BL/6J female mice. […]
# [3] = test system: primary mouse bone marrow-derived macrophages (BMMs); experiment: Viability of BMMs (WST / MTT assay); type: cell-based; settings: doses that inhibit osteoclast differentiation, FIG. 1D
# Experimental: as §2, with “**p<0.01. Next, the WST assay was used to determine whether the suppressed osteoclastogenesis by MLN4924 was caused by cytotoxicity.” for “**p<0.01.”
# [4] = test system: cathepsin K; experiment: Cathepsin K activity fluorometric assay, RAW264.7 cells; type: cell-based, mouse; settings: sRANKL-activated RAW264.7 cells, 7 days, FIG. 2C
# Experimental: as §1
# (§3) The pre-osteoclasts and RAW264.7 cells were seeded into Corning Osteo Surface Assay 96-wells plate (Corning, Kennebunk, Me.). Twenty-four hours later, the cells were treated with sRANKL (50 ng/ml) and specified concentrations of MLN4924 for 7 days. The cells were then harvested so as to evaluate the cathepsin K activity by use of Biovision Cathepsin K Activity Fluorometric Assay Kit (Biovision, Milpitas, Calif.). The Corning Osteo surface was stained with 1% toluidine blue for 24 hours and washed with deionized water twice. […]
# [5] = test system: primary mouse bone marrow-derived macrophages (BMMs); experiment: Pit assay on Corning Osteo Surface, BMM-derived osteoclasts; type: cell-based; settings: M-CSF, sRANKL, 7 days, FIG. 1B
# Experimental: as §2
# The pre-osteoclasts and RAW264.7 cells were seeded into Corning Osteo Surface Assay 96-wells plate (Corning, Kennebunk, Me.). […]
# The effect of MLN4924 on the activity of osteoclast was then confirmed by pit assay. […] The resorbing areas on bone matrix by osteoclasts were visualized by 1% toluidine blue staining and quantified by image software.
# [6] = test system: RAW264.7 cells; experiment: Pit assay on Corning Osteo Surface, RAW264.7-derived osteoclasts; type: cell-based, mouse; settings: sRANKL-activated RAW264.7 cells, 7 days, FIG. 2B
# Experimental: as §1, §3
smiles,measurement,setting,value
"NS(=O)(=O)OC[C@@H]1C[C@@H](n2ccc3c(N[C@H]4CCc5ccccc54)ncnc32)C[C@@H]1O [MLN4924, (1S,2S,4R)-4-(4-((1S)-2,3-Dihydro-1H-inden-1-ylamino)-7H-pyrrolo(2,3-d)pyrimidin-7-yl)-2-hydroxycyclopentyl) methyl sulphamate]",cell viability of RAW264.7 cells,[1],did not affect cell viability
same,sRANKL-mediated osteoclast formation (TRAP staining),[2],obviously suppressed the sRANKL-mediated osteoclast formation in a dose-dependent manner
same,cytotoxicity / viability of BMMs,[3],no cytotoxic effects at doses that effectively inhibited osteoclast differentiation
same,osteolytic enzyme cathepsin K activity of osteoclasts,[4],significantly inhibited
same,"resorbing activity of osteoclasts (pit assay, toluidine blue)",[5],suppressed the resorbing activity of osteoclasts in a dose-dependent manner
same,bone matrix resorption of osteoclasts,[6],significantly inhibited
